{"source": "patent US12098386B2", "about": "“Use of germ cells for preparing a micro hair follicle” (L'OREAL, priority 2016, dated 2024)", "test_system": "germ cells", "assay": "Culture-amplification of germ cells on 3T3 feeder layer in Green 7F medium with or without ROCK inhibitor", "assay_type": "cell-based", "excerpt": "The germ cell region, called the bulge (FIG. 1), is extracted from the connective tissue sheath (FIG. 2) and then placed in a petri dish containing 3T3i cells (FIG. 3).\nThe hair follicles are extracted from a surgical residue of scalp. Said residue is first cut into 5 mm^2 portions and then sectioned using a scalpel between the dermis and the hypodermis.\nThe follicles are extracted using ophthalmic surgery forceps and are then sectioned just above the papilla with a scalpel. The bulb is then recovered. At this stage, the bulb comprises two compartments: the dermal compartment (dermal papilla and connective tissue sheath) and the matrix cells which form a cell mass.\nThe epithelial part is separated from the dermal part using perfusion needles. Only the epithelial part is cultured.\nThe MEM medium+10% FCS+7F (called Green 7F medium) has the following composition:\nAfter microdissection, the hair follicles in the telogen phase are deposited in Petri dishes 60 mm in diameter, seeded beforehand with 1 million 3T3 cells, and covered with the complete Green 7F culture medium; a culture of germ cells at confluence is obtained.\nThe telogen hair with the non-dissociated germ cell clump are isolated and deposited on a 3T3 feeder layer (FIG. 3). After 3 d of culture, the cells begin to proliferate in the form of a colony around the germ clump (FIG. 4). The cells reach subconfluence in 7 days (FIG. 5). […]", "data": [{"smiles": "C[C@@H](N)[C@H]1CC[C@H](C(=O)Nc2ccncc2)CC1", "note": "[Y27632]", "values": [{"measurement": "Differentiation of germ cells into marker-positive keratinocytes (K15, CD29, CD200)", "setting": "germ cells cultured in 7F medium containing the rock inhibitor (FIG. 6)", "value": "keratinocytes that are positive for the K15, CD29 and CD200 markers"}, {"measurement": "Proliferation of the germ cells (reaching confluence)", "setting": "green 7F medium, Y27632 at 10 μM, in the same medium without the rock inhibitor the cells do not proliferate (FIG. 7a/7b)", "value": "very rapidly reaching confluence"}]}]}
